Measured values reported in patent US20170035793A1, “Use of P2X Purinergic Receptor Agonists to Enhance Insulin Secretion In Pancreatic Beta Cells” (priority 2010, published 2017).
Entries after “also recorded” stand apart in the source; their conditions may differ.

What was measured:
Format in all cases: cell-based
[1] = test system: human islets; assay: Dynamic insulin secretion from perifused human islets kept at constant glucose; settings: for effect on basal insulin secretion: low glucose (3 mM), ARL67156 50 μM, apyrase 5 U/mL; for insulin secretory response to the agonist at low glucose: 3 mM glucose, ATP 100 μM (or concentration series), ATPγS 50 μM, BzATP 50 μM, α,β-methylene ATP 50 μM, ADP 100 μM, UTP 100 μM, adenosine 100 μM
Text: (§1) Islet Isolation. Islets were isolated as previously described (57). Monkey islets were isolated from cynomolgus monkeys (Macacca fascicularis) >4 years of age at the time of pancreas procurement, as previously described (58). Pig pancreata were procured from the local slaughterhouse. Mice (C57BL/6) and rat (Lewis rat; Harlan) islets were isolated using a rodent-islet isolation technique (59). All animal protocols were approved by the University of Miami Care and Use Committee. Human pancreatic islets were obtained from the Human Islet Cell Processing Facility at the Diabetes Research Institute, University of Miami Miller School of Medicine or from the Islet Cell Resource basic science islet distribution program, Islet Cell Resource Centers (ICRs) Consortium, Division of Clinical Research, National Center for Research Resources, National Institutes of Health. Human islets were dissociated into single cells using enzyme-free cell dissociation buffer (Invitrogen). Islets and islets cells from Q:1 all species were cultured identically (37° C. and 5% CO2) inCMRL Q:2 medium-1066 (Invitrogen), niacinamide (10 mM; Sigma), ITS (BD Biosciences), Zn2SO4 (15 μM, Sigma), GlutaMAX (2 mM; Invitrogen), Hepes (25 mM; Sigma), FBS (10%; Invitrogen), and penicillinstreptomycin (100 IU/mL-100 μg/mL; Invitrogen).
(§2) Insulin and Glucagon Secretion. Insulin and glucagon secretion were measured as previously described (8, 36). A high-capacity automated perifusion system was developed to dynamically measure hormone secretion from pancreatic islets. A low pulsatility peristaltic pump pushed Hepes-buffered solution (125 mM NaCl, 5.9 mM KCl, 2.56 mM CaCl2, 1 mM MgCl2, 25 mM Hepes, and 0.1% BSA, pH 7.4 at a perifusion rate of 100 μL/min) through a column containing 100 pancreatic islets immobilized in Bio-Gel P-4 Gel (BioRad). Except when otherwise stated, glucose concentration was adjusted to 3 mM for all experiments. Stimuli were applied with the perifusion buffer. The perifusate was collected in an automatic fraction collector designed for a 96-well plate format. The columns containing the islets and the perifusion solutions were kept at 37° C., and the perifusate in the collecting plate was kept at <4° C. Perifusates were collected every 1 min. Hormone release in the perifusate was determined with the human or mouse Endocrine LINCOplex Kit following manufacturer's instructions (Lincoresearch). Human islet preparations varied considerably in their quality. Thus, the magnitudes of the responses to different stimuli were compared with the same recording or using recordings from the same preparation.

[2] = test system: human islets; assay: Glucose-induced insulin secretion (glucose raised from 3 mM to 11 mM) in perifused human islets; settings: glucose 3 mM to 11 mM; for effect on glucose-induced insulin secretion: MRS2159 10 μM, Brilliant Blue G 1 μM, KN-62 1 μM, reactive blue 2 50 μM, MRS2179 10 μM, CGS15943 10 μM, adenosine 100 μM; for reduction of glucose-induced insulin release: apyrase 5 U/mL, suramin 50 μM or 100 μM, iso-PPADS 50 μM, oATP 500 μM
Text: as §1, §2

[3] = test system: human β cells; assay: [Ca2+]i imaging (Fura-2) of glucose-responsive human islet cells; settings: for [Ca2+]i response of β cells to the agonist: human β cells identified by response to high glucose (11 or 16 mM), recorded at 3 mM glucose, BzATP 50 μM; for effect on [Ca2+]i responses induced by ATPγS: iso-PPADS, nifedipine 10 μM
Text: as §1
[Ca^2+]i; Imaging. [Ca^2+]i imaging was performed as previously described (8, 36). Dispersed islet cells were immersed in Hepes-buffered solution (125 mMNaCl, 5.9 mMKCl, 2.56 mMCaCl2, 1 mMMgCl2, 25 mMHepes, and 0.1% BSA, pH7.4). Glucose was added to give a final concentration of 3 mM. Islets or dispersed islet cells were incubated in Fura-2 AM (2 μM; 1 h) and placed in a closed small volume imaging chamber (Warner Instruments). Stimuli were applied with the bathing solution. Islets loaded with Fura-2 were excited alternatively at 340 and 380 nm with a monochromator light source (Cairn Research Optoscan Monochromator; Cairn Research Ltd). Images were acquired with a Hamamatsu camera (Hamamatsu) attached to a Zeiss Axiovert 200 microscope (Carl Zeiss). Changes in the 340/380 fluorescence emission ratio over time were analyzed in individual islets and dispersed cells using Kinetic Imaging AQM Advance software (Kinetic Imaging). Peak changes in the fluorescence ratio constituted the response amplitude. Beta cells were distinguished from other endocrine cells by their [Ca^2+]i, responses to high glucose concentrations, and alpha cells were identified by their [Ca^2+]i responses to kainate (glutamate receptor agonist) (8, 36).

[4] = test system: human alpha cells; assay: [Ca2+]i imaging (Fura-2) of kainate-responsive human islet cells; settings: agonist 50 μM; for fraction of kainate-responsive cells that responded with rapid [Ca2+]i increases: human islet cells responding to kainate (100 μM)
[5] = test system: human islets; assay: ATP-induced (or α,β meATP-induced) insulin secretion in human islets with antagonists or blockers; settings: ATP 10 μM; for effect on insulin secretion induced by ATP: suramin 100 μM, Cd2+ 100 μM, nifedipine 10 μM, thapsigargin 1 μM
Text: as §1, §2

[6] = human β cells, ATPγS 50 μM, thapsigargin 1 μM

Compound: CCN(CC)c1ncnc2c1ncn2[C@@H]1O[C@H](COP(=O)(O)OP(=O)(O)C(Br)(Br)P(=O)(O)O)[C@@H](O)[C@H]1O [ARL67156]
- effect on basal insulin secretion [1]: increased basal insulin secretion
- effect on glucose-induced insulin secretion [2]: did not amplify the β-cell response

Compound: CN([C@@H](Cc1ccc(OS(=O)(=O)c2cccc3cnccc23)cc1)C(=O)N1CCN(c2ccccc2)CC1)S(=O)(=O)c1cccc2cnccc12 [KN-62]
- effect on glucose-induced insulin secretion [2]: not significantly reduced

Compound: Cc1nc(N=Nc2ccc(C(=O)O)cc2)c(COP(=O)(O)O)c(C=O)c1O [MRS2159]
- effect on glucose-induced insulin secretion [2]: not significantly reduced

Compound: 2′(3′)-O-(4-Benzoylbenzoyl)ATP [BzATP]
- [Ca2+]i response of β cells to the agonist ([3]; ATPγS 50 μM): rapid [Ca^2+]i increases; also recorded: elicited repeatable [Ca^2+]i responses
- fraction of kainate-responsive cells that responded with rapid [Ca2+]i increases [4]: 30%
- insulin secretory response to the agonist at low glucose [1]: elicited insulin secretory responses; also recorded: elicited strong insulin responses

Compound: O=c1ccn([C@@H]2O[C@H](COP(=O)(O)OP(=O)(O)OP(=O)(O)O)[C@@H](O)[C@H]2O)c(=O)[nH]1 [UTP]
- insulin secretory response to the agonist at low glucose [1]: did not evoke strong insulin responses; also recorded: increase insulin release

Compound: Cc1nc(/N=N/c2cc(S(=O)(=O)O)ccc2S(=O)(=O)O)c(COP(=O)(O)O)c(C=O)c1O [iso-PPADS]
- block of [Ca2+]i responses to ATP ([3]; human β cells): 80%
- effect on [Ca2+]i responses induced by ATPγS [3, 6]: reduced [Ca^2+]i responses
- inhibition at 50 µM ([5]; iso-PPADS 50 μM, read-out: inhibition of insulin responses to ATP): ~95%
- effect on insulin secretion induced by ATP ([5]; iso-PPADS 50 μM): inhibited
- reduction of glucose-induced insulin release [2]: 30%

Compound: adenosine deaminase
- effect of degrading adenosine on the apyrase effect on glucose-stimulated insulin secretion ([2]; ADA 1 U/mL added to apyrase 5 U/mL): did not change the effect of apyrase on glucose-stimulated insulin secretion

Compound: CCOc1ccc(Nc2ccc(/C(=C3C=C/C(=[N+](/CC)Cc4cccc(S(=O)(=O)[O-])c4)C=C/3C)c3ccc(N(CC)Cc4cccc(S(=O)(=O)[O-])c4)cc3C)cc2)cc1.[Na+] [Brilliant Blue G]
- effect on glucose-induced insulin secretion [2]: not significantly reduced

Compound: Nc1ncnc2c1ncn2[C@@H](C=O)O[C@@H](C=O)COP(=O)(O)OP(=O)(O)OP(=O)(O)O [oATP, oxidized ATP]
- reduction of glucose-induced insulin release [2]: 65%

Compound: apyrase
- effect on basal insulin secretion [1]: did not reduce basal insulin secretion
- effect on basal insulin secretion ([1]; listed as Apyrase): did not change basal insulin secretion
- reduction of glucose-induced insulin release [2]: ~15%

Compound: Nc1ncnc2c1ncn2[C@@H]1O[C@H](COP(=O)(O)OP(=O)(O)OP(O)(O)=S)[C@@H](O)[C@H]1O [ATPγS]
- [Ca2+]i response of β cells to the agonist ([3]; ATPγS 50 μM): rapid [Ca^2+]i increases
- [Ca2+]i response of β cells to the agonist ([3]; ATPγS 50 μM, listed as ATP S): induced [Ca^2+]i responses
- [Ca2+]i responses to the agonist in the nominal absence of extracellular Ca2+ ([3]; human β cells, nominal 0 Ca2+ (+1 mM EGTA), ATPγS 50 μM): reduced
- [Ca2+]i response of alpha cells to the agonist ([4]; human alpha cells identified by kainate (100 μM), 3 mM glucose): did not respond to ATP S
- fraction of kainate-responsive cells that responded with rapid [Ca2+]i increases [4]: 30%
- insulin secretory response to the agonist at low glucose [1]: elicited insulin secretory responses; also recorded: elicited strong insulin responses

Compound: Nc1ncnc2c1ncn2[C@@H]1O[C@H](CO)[C@@H](O)[C@H]1O [adenosine]
- insulin secretory response to the agonist at low glucose [1]: did not evoke strong insulin responses
- insulin secretory response to the agonist at low glucose ([1]; listed as Adenosine): minor effect on insulin release
- effect on glucose-induced insulin secretion [2]: neither the P1 receptor antagonist CGS15943 (10 μM) nor adenosine (100 μM) altered glucose-induced insulin secretion

Compound: Nc1ncnc2c1ncn2[C@@H]1O[C@H](COP(=O)(O)CP(=O)(O)OP(=O)(O)O)[C@@H](O)[C@H]1O [α,β-methylene ATP]
- [Ca2+]i response of β cells to the agonist ([3]; ATPγS 50 μM): elicited repeatable [Ca^2+]i responses
- insulin secretory response to the agonist at low glucose [1]: elicited strong insulin responses
- insulin responses to the agonist in the nominal absence of extracellular Ca2+ ([5]; nominal 0 Ca2+ (+1 mM EGTA), α,β meATP 100 μM): strongly diminished

Compound: CNc1ncnc2c1ncn2[C@H]1C[C@H](OP(=O)(O)O)[C@@H](COP(=O)(O)O)O1 [MRS2179]
- effect on glucose-induced insulin secretion [2]: did not inhibit glucose induced insulin release

Compound: Cc1ccc(C(=O)Nc2ccc(S(=O)(=O)O)c3cc(S(=O)(=O)O)cc(S(=O)(=O)O)c23)cc1NC(=O)c1cccc(NC(=O)Nc2cccc(C(=O)Nc3cc(C(=O)Nc4ccc(S(=O)(=O)O)c5cc(S(=O)(=O)O)cc(S(=O)(=O)O)c45)ccc3C)c2)c1 [suramin]
- effect on insulin secretion induced by ATP ([5]; iso-PPADS 50 μM): inhibited
- reduction of glucose-induced insulin release [2]: 40%

Compound: C/C=C(/C)C(=O)O[C@H]1C(C)=C2[C@H]([C@@H]1OC(=O)CCCCCCC)[C@@](C)(OC(C)=O)C[C@H](OC(=O)CCC)[C@@]1(O)[C@H]2OC(=O)[C@@]1(C)O [thapsigargin]
- effect on [Ca2+]i responses induced by ATPγS [3, 6]: not decreased
- effect on [Ca2+]i responses to ATP ([3]; human β cells, thapsigargin 1 μM, nifedipine): did not affect [Ca^2+]i responses to ATP
- effect on insulin secretion induced by ATP ([5]; iso-PPADS 50 μM): had no effect on insulin responses to ATP
- effect on insulin secretion induced by ATP ([5]; iso-PPADS 50 μM, listed as Thapsigargin): did not affect insulin responses

Compound: Nc1c(S(=O)(=O)O)cc(Nc2ccc(Nc3nc(Cl)nc(Nc4cccc(S(=O)(=O)O)c4)n3)c(S(=O)(=O)O)c2)c2c1C(=O)c1ccccc1C2=O [reactive blue 2]
- effect on glucose-induced insulin secretion [2]: did not inhibit glucose induced insulin release

Compound: Nc1ncnc2c1ncn2[C@@H]1O[C@H](COP(=O)(O)OP(=O)(O)O)[C@@H](O)[C@H]1O [ADP]
- insulin secretory response to the agonist at low glucose [1]: elicited insulin secretory responses; also recorded: increase insulin release
